In ChEMBL document CHEMBL1201862, “PubChem BioAssay data set” (2004) one finds IC50 data, which are given here for two compounds.

The structures appear in SMILES notation. Calls of active or inactive are those of the source. No stated cut-off is given here; in the data, actives have a measured IC50 and inactives only a lower limit.

In this assay the target is Envelope glycoprotein gp160 (Human immunodeficiency virus 1, UniProt Q6QLK5). The assay is described as follows: cell-free HIV fusion peptide-binding blockers – biochemical, uHTS, fluorescence dequenching, […] (AID 1986).
Sequence of Envelope glycoprotein gp160 (Q6QLK5 whole entry, the tested form may be a part): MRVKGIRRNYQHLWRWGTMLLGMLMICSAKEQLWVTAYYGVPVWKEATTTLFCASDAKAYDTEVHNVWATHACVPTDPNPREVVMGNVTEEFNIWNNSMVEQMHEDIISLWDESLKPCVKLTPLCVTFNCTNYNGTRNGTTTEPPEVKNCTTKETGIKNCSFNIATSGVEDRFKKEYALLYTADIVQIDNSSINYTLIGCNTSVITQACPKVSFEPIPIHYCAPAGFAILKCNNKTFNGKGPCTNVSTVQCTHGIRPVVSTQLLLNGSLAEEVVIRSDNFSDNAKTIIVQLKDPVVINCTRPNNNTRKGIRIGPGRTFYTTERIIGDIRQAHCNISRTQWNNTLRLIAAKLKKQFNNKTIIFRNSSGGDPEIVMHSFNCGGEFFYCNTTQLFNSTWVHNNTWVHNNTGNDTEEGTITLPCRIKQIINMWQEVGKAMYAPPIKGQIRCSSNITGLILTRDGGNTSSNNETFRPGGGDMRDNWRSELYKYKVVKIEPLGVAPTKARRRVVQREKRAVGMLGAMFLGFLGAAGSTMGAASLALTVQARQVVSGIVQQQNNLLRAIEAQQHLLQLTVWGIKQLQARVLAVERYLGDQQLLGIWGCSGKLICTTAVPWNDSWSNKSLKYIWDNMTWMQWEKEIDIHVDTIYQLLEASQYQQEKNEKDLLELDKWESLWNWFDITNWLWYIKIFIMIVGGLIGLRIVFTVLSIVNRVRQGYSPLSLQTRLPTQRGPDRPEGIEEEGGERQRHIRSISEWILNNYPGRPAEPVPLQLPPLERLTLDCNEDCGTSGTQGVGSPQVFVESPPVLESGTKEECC

Usually IC50 stands for the concentration needed to halve the response being measured. In the case of `O=C(O)COc1ccccc1/C=N/NC(=O)CSc1nnc(SCc2cccc3ccccc23)s1`, the 50% inhibitory concentration (IC50) is 26.6 µM (active).
The figure for `COc1cc(/C=C2\C(=N)N3N=C(S(C)(=O)=O)SC3=NC2=O)ccc1OC(=O)c1ccco1` is 21.9 µM (active).
